Assay results: US20090324691A1, “METHODS AND OPHTHALMIC DEVICES USED IN THE TREATMENT OF OCULAR ALLERGIES” (priority 2008, published 2009)
Counter-ions that a name gives are not always drawn.

Assays:
[1] = concentrations higher than 0.025% (0.25 mg/mL), topical solution; cited from earlier work
[2] = Uptake of ketotifen fumarate to an ophthalmic device over time (FIG. 1); assay type: physicochemical; conditions: 3.0 mL of 43 ug/mL ketotifen fumarate packing solution per lens
Protocol: FIG. 1 illustrates the uptake of ketotifen fumarate to an ophthalmic device over time.
Three lots of 1-Day Acuvue® Brand Contact Lenses (etafilcon A) were cured and hydrated with deionized water. These lenses were inserted into glass vials containing 3.0 mL of a 43 ug/mL ketotifen fumarate packing solution per lens (packing solution formulation: borate buffered saline containing 0.83% sodium chloride, 0.9% boric acid, 100 ug/mL of dicalcium DTPA, and 0.1% sodium borate decahydrate ). The soaked and harvested at 5, 15, 30, 90 and 180 minutes and extracted and assayed as in Example 1 to determine the amount of ketotifen per treated lens. This graph illustrates that a minimum effective amount of in an etafilcon A contact lens is attained within 15 minutes of treatment.

CN1CCC(=C2c3ccccc3CC(=O)c3sccc32)CC1 [ketotifen fumarate]
ocular tolerability of higher concentrations [1]: sting and burn upon initial administration to the eye | time of treatment to attain a minimum effective amount in an etafilcon A contact lens [2]: ≤ 15 min
